Source: ChEMBL document CHEMBL1201862, “PubChem BioAssay data set” (2004)
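Growth conditions: 96-well plates. Treatment: test compound, 48 hours, 5 concentrations. Analysis: linear interpolation between bracketing concentrations; unreached endpoints set to highest concentration. Abbreviation: GI50, concentration required for 50% inhibition of growth.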 Activity calls are given as the source filed them. No stated cut-off is given here; in the data, active = GI50 up to about 1.1 µM and inactive = higher.

Legend:
Assay in all cases: NCI tumour cell line growth inhibition, 48 h
[1] = system: HOP-92
[2] = system: MDA-MB-231
[3] = system: HCT-116
[4] = system: SNB-75
[5] = system: SK-OV-3
[6] = system: OVCAR-4
[7] = system: KM12
[8] = system: CCRF-CEM
[9] = system: NCI/ADR-RES
[10] = system: SW-620
[11] = system: ACHN
[12] = system: MDA-N
[13] = system: UACC-62
[14] = system: HOP-62
[15] = system: SK-MEL-5
[16] = system: BT-549
[17] = system: CAKI-1
[18] = system: UACC-257
[19] = system: OVCAR-8
[20] = system: DU-145
[21] = system: Malme-3M
[22] = system: NCI-H522
[23] = system: SF-295
[24] = system: SF-539
[25] = system: SN12C
[26] = system: MDA-MB-435
[27] = system: M14
[28] = system: HCC 2998
[29] = system: NCI-H226
[30] = system: EKVX
[31] = system: T47D
[32] = system: MCF7
[33] = system: LOX IMVI
[34] = system: TK-10
[35] = system: OVCAR-5
[36] = system: HCT-15
[37] = system: 786-0
[38] = system: SK-MEL-28
[39] = system: SK-MEL-2
[40] = system: SNB-19
[41] = system: HL-60
[42] = system: RXF 393
[43] = system: A498
[44] = system: U-251
[45] = system: SF-268
[46] = system: Hs-578T
[47] = system: OVCAR-3
[48] = system: HT-29
[49] = system: K562
[50] = system: NCI-H23
[51] = system: COLO 205
[52] = system: NCI-H460
[53] = system: PC-3
[54] = system: A549

SMILES: COc1ccc2nc3n(c2c1)CCc1cc(OC)c(OC)cc1-3
- GI50 [1]: 56 µM (inactive)
- GI50 [2]: > 100 µM (inactive)
- GI50 [3]: 47.8 µM (inactive)
- GI50 [4]: 40.7 µM (inactive)
- GI50 [5]: > 100 µM (inactive)
- GI50 [6]: 34.8 µM (inactive)
- GI50 [7]: 30 µM (inactive)
- GI50 [8]: 49.1 µM (inactive)
- GI50 [9]: 45.2 µM (inactive)
- GI50 [10]: 71.3 µM (inactive)
- GI50 [11]: 81.5 µM (inactive)
- GI50 [12]: 44 µM (inactive)
- GI50 [13]: 32.3 µM (inactive)
- GI50 [14]: 58.2 µM (inactive)
- GI50 [15]: 18.7 µM (inactive)
- GI50 [16]: 30 µM (inactive)
- GI50 [17]: 42.4 µM (inactive)
- GI50 [18]: 55 µM (inactive)
- GI50 [19]: 41.6 µM (inactive)
- GI50 [20]: 83.8 µM (inactive)
- GI50 [21]: 91 µM (inactive)
- GI50 [22]: 32.2 µM (inactive)
- GI50 [23]: 50.9 µM (inactive)
- GI50 [24]: 88.9 µM (inactive)
- GI50 [25]: 63.1 µM (inactive)
- GI50 [26]: 34.5 µM (inactive)
- GI50 [27]: 39.9 µM (inactive)
- GI50 [28]: 26 µM (inactive)
- GI50 [29]: 54.3 µM (inactive)
- GI50 [30]: 42.4 µM (inactive)
- GI50 [31]: 34.6 µM (inactive)
- GI50 [32]: 42.5 µM (inactive)
- GI50 [33]: 45.8 µM (inactive)
- GI50 [34]: 86.3 µM (inactive)
- GI50 [35]: > 100 µM (inactive)
- GI50 [36]: 33.5 µM
- GI50 [37]: 49.8 µM (inactive)
- GI50 [38]: 78 µM (inactive)
- GI50 [39]: > 100 µM (inactive)
- GI50 [40]: 99.5 µM (inactive)
- GI50 [41]: 44.6 µM (inactive)
- GI50 [42]: > 100 µM (inactive)
- GI50 [43]: 68.7 µM (inactive)
- GI50 [44]: 60.8 µM (inactive)
- GI50 [45]: > 100 µM (inactive)
- GI50 [46]: 85.7 µM (inactive)
- GI50 [47]: 46.7 µM (inactive)
- GI50 [48]: 26.7 µM (inactive)
- GI50 [49]: 37.9 µM (inactive)
- GI50 [50]: 40.1 µM (inactive)
- GI50 [51]: 26.1 µM (inactive)
- GI50 [52]: 50.5 µM (inactive)
- GI50 [53]: 39.4 µM (inactive)
- GI50 [54]: 44.5 µM (inactive)
